In brackets after ≈: the same amount, converted by molar mass.
Key:
[1] = Room temperature solubility in acetonitrile; type: physicochemical; conditions: moles per liter of solution; for solubility: organic solvent or mixture, read-out: MeCN solubility
[2] = Cyclic voltammetry screening (3-electrode beaker cell); type: physicochemical; conditions: 0.1 M TBAPF6 in acetonitrile; for E1/2^0 (half-cell potential, arithmetic average of anode and cathode peaks): 5 mM redox species, Ag|10 mM AgNO3 reference; for E1/2^0 (half-cell potential, arithmetic average of anode and cathode peaks) / redox potential, E1/2: 100 mV/s; for redox potential, E1/2 / Redox activity of the bipolar molecule (in words): 5 mM; for redox potential, E1/2: vs Ag|10 mM AgNO3 in acetonitrile (−0.09 V vs Fc|Fc+); for Ecell^0 (cell voltage) / E^1/2, anolyte (negative) redox event / E^1/2, catholyte (positive) redox event: bipolar compound 5 mM; for E^1/2, anolyte (negative) redox event / E^1/2, catholyte (positive) redox event: vs Ag|10 mM AgNO3; for Redox activity of the bipolar molecule (in words): cyclic voltammogram

Ecell^0 (cell voltage) [2]	E^1/2, anolyte (negative) redox event [2]	E^1/2, catholyte (positive) redox event [2]	Compound	E1/2^0 (half-cell potential, arithmetic average of anode and cathode peaks) [2]	redox potential, E1/2 [2]	other results
3.73 V	−2.632 V	+1.096 V	COc1ccc(OCCc2ccc(/C=C/c3ccccc3)cc2)cc1 [Entry 6]	–	–	–
3.82 V	−1.217 V	+0.934 V	COc1ccc(OCCc2ccccc2-c2ccccc2)cc1 [Entry 4]	–	–	–
–	−2.665 V	–	COc1ccc(CCOc2ccc(/C=C/c3ccccc3)cc2)cc1 [Entry 7]	–	–	Redox activity of the bipolar molecule (in words) [2]: non-redox active molecule
3.93 V	−2.976 V	+0.953 V	COc1ccc(OCCc2cccc(-c3ccccc3)c2)cc1 [Entry 3]	–	–	–

Second part, the compound before the results:

Compound	Ecell^0 (cell voltage) [2]	E^1/2, anolyte (negative) redox event [2]	E^1/2, catholyte (positive) redox event [2]	E1/2^0 (half-cell potential, arithmetic average of anode and cathode peaks) [2]	redox potential, E1/2 [2]	other results
C(=C\c1ccccc1)/c1ccccc1 [trans-stilbene, reference compound]	–	–	–	−2.571 V vs Ag|Ag^+	−2.571 V	solubility [1]: 1070 mM (≈ 193 mg/mL)
COc1ccc(OCc2cccc3ccccc23)cc1 [Entry 2]	–	–	+0.981 V	–	–	Redox activity of the bipolar molecule (in words) [2]: non-redox active molecule
COc1ccc(OC)cc1 [p-dimethoxybenzene, reference compound]	–	–	–	+0.967 V vs Ag|Ag^+	+0.967 V	solubility [1]: 600 mM (≈ 82.9 mg/mL)
Cc1cccc2ccccc12 [1-methylnaphthalene, reference compound]	–	–	–	−2.909 V vs Ag|Ag^+	−2.909 V	MeCN solubility ([1]; acetonitrile solvent): miscible
COc1ccc(OCc2ccccc2-c2ccccc2)cc1 [Entry 5]	–	–	+0.985 V	–	–	Redox activity of the bipolar molecule (in words) [2]: non-redox active molecule
COc1ccc(OCCc2cccc3ccccc23)cc1 [Entry 1]	3.82 V	−2.857 V	+0.958 V	–	–	–
c1ccc(-c2ccccc2)cc1 [biphenyl, reference compound]	–	–	–	−2.987 V vs Ag|Ag^+	−2.987 V	solubility [1]: 1730 mM (≈ 267 mg/mL)

Reference: US20250118779A1, “BIPOLAR PARAMETHOXYPHENYL CONTAINING REDOX MOLECULES” (ExxonMobil Technology and Engineering Company, priority 2023, published 2025)
